Laboratory results as given in paper PMC8545574, “Antioxidant, Anti-Inflammatory, and Antidiabetic Activities of Bioactive Compounds from the Fruits of Livistona chinensis Based on Network Pharmacology Prediction” (Oxidative Medicine and Cellular Longevity, 2021).
Values after ≈ are worked out from the molar mass of the structure shown. Values joined by “and” are separate entries in the source; they are usually repeats but may differ in a detail not shown here. Equal values may be shown once. Read-outs that look alike come from different tables or passages of the source.

Legend:
[1] = biological target: α-Glucosidase (from Baker's yeast); test: α-Glucosidase inhibitory assay (p-NPG substrate); conditions: read-out: IC50 α-Glucosidase inhibitory effect; mean ± SD, n = 3
Experimental: The extract, fractions, and compounds were dissolved in 5% DMSO and then diluted with phosphate buffer. Briefly, 80 μL PBS, 20 μL of varying concentrations of sample solutions, and 20 μL α-glucosidase solution (1.3 U/mL) were mixed and incubated in 96-well plates at 37°C for 5 min. The reaction started when 20 μL p-nitrophenyl-α-D-glucopyranoside (2.5 mM) was added to the plate. The reaction mixture was incubated for 15 min at 37°C, and then, 80 μL Na2CO3 (0.2 M) was added to stop the reaction.

PTP1B = biological target: T1, PTP1B (Homo sapiens, UniProt P18031); test: PTP1B inhibitory assay (p-NPP substrate)
T1 sequence (P18031 1-321 limits assumed): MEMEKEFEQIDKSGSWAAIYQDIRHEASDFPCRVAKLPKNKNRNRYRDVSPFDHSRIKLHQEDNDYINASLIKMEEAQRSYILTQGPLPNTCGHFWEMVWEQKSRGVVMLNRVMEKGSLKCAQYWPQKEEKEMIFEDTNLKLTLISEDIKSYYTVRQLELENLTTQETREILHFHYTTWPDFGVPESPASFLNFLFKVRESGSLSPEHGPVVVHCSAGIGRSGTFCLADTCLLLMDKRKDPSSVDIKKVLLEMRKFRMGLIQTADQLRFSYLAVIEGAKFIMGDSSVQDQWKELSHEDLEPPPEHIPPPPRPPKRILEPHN
Experimental: PTP1B (10 μg/mL stock solution) was dissolved in 10 mM citrate buffer (pH 6.0), 1 mM dithiothreitol (DTT), and 1 mM N, N, N′, N′-ethylenediaminetetraacetate (EDTA). 20.0 μL PTP1B stock solution and 60 μL citrate buffer were added to each well of a 96-well plastic plate.

[2] = system: LPS-stimulated NO release in RAW 264.7 cells; test: Nitrite (Griess) assay of LPS-stimulated NO release; type: cell-based
Experimental: The level of NO production was tested by measuring the nitrite level in the culture medium with the Griess method. Cells were seeded at a density of 2 × 10^4 cells per well in 96-well plates. […] A microplate reader was employed for the optical density measurement at 570 nm.

[3] = ABTS radical cation scavenging assay; type: biochemical; conditions: mean ± SD, n = 3
Experimental: The ABTS radical cation (ABTS·+) was prepared by reacting ABTS with potassium persulfate following the method previously described. The ABTS radical cation (ABTS·+) was prepared by mixing with 2.45 mM potassium persulfate and equal volumes of an ABTS solution (7 mM), and then, they were permitted to react in the darkness at room temperature for 12–16 h. Thereafter, the ABTS reagent was diluted with methyl alcohol until reaching an absorbance of 0.70 ± 0.02 units at 734 nm. In a 96-well microplate, ABTS reagent (190 μL in each well) and samples (10 μL in each well) were incubated at room temperature for 20 min. To determine the antioxidant capacity by the ABTS method, the experimental conditions and protocol were identical to those of the DPPH assay. The only difference was that the absorbance was measured at 734 nm.

[4] = DPPH free radical scavenging assay; type: biochemical; conditions: mean ± SD, n = 3
Experimental: The DPPH free radical scavenging assay was performed according to a previously reported method. A series of different concentrations of the tested samples and the positive control ascorbic acid were mixed with freshly prepared DPPH (0.2 mM) in a 96-well microplate with a total volume of 150 μL. After leaving the mixture to react in the dark for 30 min, its absorbance was determined at 517 nm. All of the wells with only samples were set as blanks to obtain an absorbance value, which was subtracted from the test sample readings. The percentage inhibition (%) for each sample was calculated by the following formula: (1) Inhibition %=Absblank−Abssamples/Absblank×100%, where Absblank and Abssamples correspond to the absorbance units (at 517 nm) of DPPH solutions incubated in the absence and presence of the tested samples.

[5] = Mus musculus, RAW264.7, LPS (1 μg/mL)-stimulated RAW 264.7 cells, mean ± SD, n = 3, read-out: IC50 NO production anti-inflammatory effect

Compound | IC50 [1] [µM] | IC50 (PTP1B) [µM] | IC50 [2, 5] | IC50 [3] [µM] | IC50 [4] [µM] | IC50 ABTS scavenging activity ([3]; extract and fractions) [µg/mL] | IC50 DPPH scavenging activity ([4]; extract and fractions) [µg/mL] | IC50 ([2]; LPS (1 μg/mL)-stimulated RAW 264.7 cells, mean ± SD, n = 3, read-out: IC50 NO production anti-inflammatory effect) [µM] | IC50 ([2]; Mus musculus, RAW264.7, read-out: IC50 NO production anti-inflammatory effect) [µM] | IC50 (PTP1B; read-out: IC50 PTP1B inhibitory effect, mean ± SD, n = 3) [µM]
COc1cc([C@H](O)[C@H](CO)Oc2ccc(CCCO[C@@H]3O[C@H](CO)[C@@H](O)[C@H](O)[C@H]3O)cc2OC)ccc1O [Compound 23, threo-(7R,8R)-4,7,9,9′-tetrahydroxy-3,3′-dimethoxy-8-O-4′-neolignan-9′-O-β-D-glucopyranoside] | 82.12 ± 0.56 | 90.06 ± 0.47 | 73.16 ± 0.34 µM | 68.2 ± 0.76 | > 100 |  |  |  |  | 
COc1cc([C@@H](O)[C@H](CO)Oc2ccc(CCCO[C@@H]3O[C@H](CO)[C@@H](O)[C@H](O)[C@H]3O)cc2OC)ccc1O [Compound 22, erythro-(7R,8S)-4,7,9,9′-tetrahydroxy-3,3′-dimethoxy-8-O-4′-neolignan-9′-O-β-D-glucopyranoside] | 73.1 ± 2.33 | 92.39 ± 0.71 | 83.16 ± 0.24 µM | 26.97 ± 0.21 | > 100 |  |  |  |  | 
O=C(O)c1ccc(O)c(O)c1 [Compound 38, protocatechuic acid] |  | 44.75 ± 0.12 |  | 63.25 ± 0.51 | 33.1 ± 0.79 |  |  |  |  | 
COc1cc([C@H]2OC[C@H]3[C@@H]2CO[C@@H]3c2cc(OC)c(O)c(OC)c2)ccc1O [Compound 30, (+)-medioresinol] | 34.4 ± 0.5 | 26.75 ± 0.21 | 55.5 ± 1.85 µM | 25.58 ± 0.12 | 95.7 ± 2.44 |  |  |  |  | 
COc1cc([C@@H](O)[C@H](CO)Oc2ccc(CCCO)cc2OC)ccc1O [Compound 20, erythro-(7R,8S)-guaiacyl-glycerol-β-O-4′-dihydroconiferyl ether] | 52.6 ± 1.33 | 93.6 ± 1.07 | 53.16 ± 0.24 µM | 60.92 ± 0.46 | > 100 |  |  |  |  | 
COC(=O)c1ccc(O)c(O)c1 [Compound 42, protocatechuic acid methyl ester] |  | 63 ± 0.65 |  | 83.21 ± 0.53 | 63.32 ± 0.41 |  |  |  |  | 
C[C@@H]1O[C@@H](O[C@H]2C(=O)c3c(O)cc(O)cc3O[C@@H]2c2ccc(O)c(O)c2)[C@H](O)[C@H](O)[C@H]1O [Compound 12, astilbin] | > 100 | > 100 |  | 43.1 ± 0.29 | 46.46 ± 0.4 |  |  |  |  | 
COc1cc(C2Oc3c(OC)cc(CCCO)cc3C2CO)ccc1O [Compound 13, (7S,8R)-dihydrodehydrodiconiferyl alcohol] | 88.62 ± 0.49 | > 100 | 76.69 ± 0.51 µM | 24.6 ± 0.31 | 87.78 ± 0.74 |  |  |  |  | 
COc1cc(O)c2c(=O)cc(-c3ccc(O)cc3)oc2c1 [Compound 7, genkwanin] | > 100 | 30.2 ± 0.45 | 70.79 ± 0.67 µM | 63.11 ± 0.24 | 78.76 ± 0.61 |  |  |  |  | 
O=c1cc(-c2ccc(O)cc2)oc2c([C@@H]3O[C@H](CO)[C@@H](O)[C@H](O)[C@H]3O)c(O)cc(O)c12 [Compound 9, vitexin] | 98.6 ± 1.2 | 30.6 ± 0.48 |  | 85.04 ± 0.24 | 92.26 ± 0.32 |  |  |  |  | 
COc1cc(-c2oc3cc(O)cc(O)c3c(=O)c2O[C@@H]2O[C@H](CO)[C@@H](O)[C@H](O)[C@H]2O)ccc1O [Compound 11, isorhamnetin-3-O-β-D-glucoside] | > 100 |  |  | 36.71 ± 0.33 | 21.8 ± 0.26 |  |  |  |  | 
O=C1O[C@H]([C@@H](O)CO)C(O)=C1O [Ascorbic acid, reference compound] |  |  |  | 50.9 ± 1.25 | 35.1 ± 1.02 | 8.96 ± 0.22 (≈ 50.9 µM) | 6.18 ± 0.18 (≈ 35.1 µM) |  |  | 
COc1ccc(C(=O)O)cc1O [Compound 41, isovanillic acid] |  | 91.1 ± 0.38 |  | 76.06 ± 0.48 | > 100 |  |  |  |  | 
COc1cc([C@H]2OC[C@H]3[C@@H]2CO[C@@H]3c2cc(OC)c(O)c(OC)c2)cc(OC)c1O [Compound 31, (+)-syringaresinol] | 49.1 ± 1.1 |  | 48.98 ± 0.39 µM | 23.7 ± 0.25 | 65.4 ± 1.48 |  |  |  |  | 
COc1cc(O)c2c(c1)C(=O)c1cc(C)cc(O)c1C2=O [Compound 45, physcion] |  | 24.75 ± 0.18 | 30 ± 0.57 µM | > 100 | > 100 |  |  |  |  | 
(+)-pinoresinol [Compound 29] | 52.1 ± 0.93 |  |  | 18.49 ± 0.09 | 77.4 ± 2.98 |  |  | 69.94 ± 0.31 |  | 

Compound | IC50 [1] [µM] | IC50 (PTP1B) [µM] | IC50 [2, 5] | IC50 [3] [µM] | IC50 [4] [µM] | IC50 ABTS scavenging activity ([3]; extract and fractions) [µg/mL] | IC50 DPPH scavenging activity ([4]; extract and fractions) [µg/mL] | IC50 ([2]; LPS (1 μg/mL)-stimulated RAW 264.7 cells, mean ± SD, n = 3, read-out: IC50 NO production anti-inflammatory effect) [µM] | IC50 ([2]; Mus musculus, RAW264.7, read-out: IC50 NO production anti-inflammatory effect) [µM] | IC50 (PTP1B; read-out: IC50 PTP1B inhibitory effect, mean ± SD, n = 3) [µM]
COc1cc(C(=O)O)ccc1O [Compound 37, vanillic acid] |  |  |  | 88.32 ± 0.12 | > 100 |  |  |  |  | 
Oc1cc(O)c2c(c1)O[C@H](c1ccc(O)c(O)c1)[C@@H](O)C2 [Compound 3, (+)-catechin] | 89 ± 1.95 | 91.78 ± 0.68 |  | 11.29 ± 0.09 | 26.4 ± 0.39 |  |  |  |  | 
COc1cc([C@@H]2OC[C@H]3C(=O)OC[C@H]32)ccc1O [Compound 27, salicifoliol] | > 100 |  | 66.86 ± 0.51 µM | 41.98 ± 0.33 | > 100 |  |  |  |  | 
Oc1ccc([C@H]2Oc3cc(O)cc(O)c3C[C@H]2O)cc1 [Compound 2, (-)-epiafzelechin] | 62.5 ± 1.92 | 39.25 ± 0.14 |  | 15 ± 0.11 | 43.4 ± 0.46 |  |  |  |  | 
COc1cc([C@@H](O)[C@H](CO)Oc2c(OC)cc(CCCO)cc2OC)ccc1O[C@@H]1O[C@H](CO)[C@@H](O)[C@H](O)[C@H]1O [Compound 24, erythro-(7R,8S)-7,9,9-trihydroxy-3,3,5-trimethoxy-8-O-4-neolignan-4-O-β-D-glucopyranoside] |  | > 100 |  | > 100 | > 100 |  |  |  |  | 
COc1ccc2c(c1)c(CC(=O)O)c(C)n2C(=O)c1ccc(Cl)cc1 [Indomethacin, reference compound] |  |  | 8.01 µg/mL and 22.4 µM |  |  |  |  |  |  | 
COc1cc(CCCO)ccc1O[C@@H](CO)[C@H](O)c1cc(OC)c(O)c(OC)c1 [Compound 21] | 61.8 ± 0.76 | 67 ± 1.2 | 55.54 ± 0.41 µM | 93 ± 0.54 | > 100 |  |  |  |  | 
COc1cc(-c2cc(=O)c3c(O)cc(O[C@@H]4O[C@H](CO)[C@@H](O)[C@H](O)[C@H]4O)cc3o2)cc(OC)c1O [Compound 10, tricin-7-O-β-D-glucoside] | > 100 |  |  | 91.1 ± 1.1 | > 100 |  |  |  | 65.8 ± 1.47 | 
COc1cc(C2Oc3c(OC)cc(CCCO)cc3C2CO)ccc1OC(CO)CO [Compound 15, (7S,8R)-9,9′-dihydroxyl-3,3′-dimethoxyl-4-O-glycerol-7,8-dihydrobenzofuran-1′-propanolneoligan] | > 100 | > 100 | 13.2 ± 0.36 µM | > 100 | > 100 |  |  |  |  | 
COc1cc([C@@H](O)[C@H](CO)Oc2c(OC)cc([C@@H]3OC[C@@H]4[C@H]3CO[C@H]4c3ccc(O)c(OC)c3)cc2OC)ccc1O (single isomer, unassigned) [Compound 33] | 50.9 ± 1.78 |  | 47.4 ± 0.85 µM | 33.4 ± 0.45 | 66.67 ± 0.52 |  |  |  |  | 62.1 ± 0.73
COc1cc(-c2cc(=O)c3c(O)cc(O)cc3o2)cc(OC)c1O [Compound 8, tricin] | > 100 | > 100 |  | 24.1 ± 0.32 | 61.25 ± 0.31 |  |  |  |  | 
COc1cc([C@@H](O)[C@H](CO)Oc2ccc([C@@H]3OC[C@@H]4[C@H]3CO[C@H]4c3ccc(O)c(OC)c3)cc2OC)ccc1O [Compound 32] | 5.71 ± 0.17 | 81.93 ± 0.78 | 46.2 ± 0.67 µM | 40.63 ± 0.23 | 96.4 ± 2.26 |  |  |  |  | 
COc1cc(CCCO)cc(OC)c1OC(CO)CO [Compound 26, 2-[4-(3-hydroxy-propyl)-2,6-dimethoxyphenoxy]-propane-1,3-diol] | 56.52 ± 0.45 |  |  | > 100 | > 100 |  |  |  |  | 
Oc1cc(O)c2c(c1)O[C@H](c1ccc(O)c(O)c1)[C@H](O)C2 [Compound 4, (-)-epicatechin] | 24 ± 0.38 | 38.66 ± 0.21 |  | 13.46 ± 0.09 | 32 ± 0.37 |  |  |  |  | 
COc1cc([C@@H]2OC(=O)[C@@H]3[C@H]2CO[C@H]3c2ccc(O)c(OC)c2)ccc1O [Compound 28, 4-ketopinoresinol] | > 100 |  | 14.8 ± 1.2 µM | 20.4 ± 0.23 | > 100 |  |  |  |  | 
